Results reported in article PMC6158327, “Negative Allosteric Modulators of mGlu7 Receptor as Putative Antipsychotic Drugs” (Frontiers in Molecular Neuroscience, 2018).

Legend:
[1] = tested on: field potentials in frontal cortical slices; assay: Electrophysiology: field potentials in frontal cortical slices, WILD mice; design: species or system C57BL/6J WT mice; details: for Before-after effect of the drug on FP amplitude: WILD group; for S (factor proportional to the slope of the curve) / Uh (stimulation intensity evoking FP of half-maximum amplitude) / Vmax (maximum FP amplitude, Boltzmann fit): slices from WILD mice, after 20 min drug superfusion
Description: Mice (wild and KO, approx. 25 g) were housed under a controlled light/dark cycle (light on: 0700–1900) and had free access to standard food and tap water. Mice were anesthetized with isoflurane (Aerrane, Baxter) decapitated, their brains were dissected and immersed in an ice-cold artificial cerebrospinal fluid (ACSF) of the following composition (in mM): NaCl (130), KCl (5), CaCl2 (2.5), MgSO4 (1.3), KH2PO4 (1.25), NaHCO3 (26), and glucose (10), bubbled with a mixture of 95% O2/5% CO2 to pH 7.4. Frontal cortical slices (bregma 1.9–1.4, 380 μm) were cut in a coronal plane using a vibrating microtome and they were stored at 32°C. A single slice was next transferred to the recording chamber (32°C ± 0.5°C) and superfused at 2.5 ml/min with a ACSF.
A bipolar stimulating electrode (FHC) was placed approx. 2 mm lateral to the midline and approx. 1.0 mm below the pial surface (in layer V) (Figure 1). Stimuli (duration: 0.2 ms) were applied at 0.033 Hz using a constant-current stimulus isolation unit (WPI). Field potentials (FPs) were recorded using glass micropipettes filled with ACSF (1–3 MΩ), which were placed approx. 0.2 mm below the cortical surface (in layer II/III). FPs were amplified (Axoprobe 1A, Axon Instruments), A/D converted at 10 kHz and stored using Micro1401 interface and Signal 4 software (CED).
The stimulus–response curves obtained for each slice were fit with the Boltzmann equation: Vi = Vmax/(1 + exp[(u - Uh)/-S]), where Vmax is the maximum FP amplitude; u is the stimulation intensity; Uh is the stimulation intensity evoking FP of half-maximum amplitude; S is the factor proportional to the slope of the curve; “exp” is exponentiation – mathematical operation. The results are expressed as the means ± SEM. Statistical analyses were carried out using t-test ([Tokarski et al., 2011]).
For each slice, at the beginning of the experiment an input-output curve was generated in ACSF. A stimulus-response (input-output) curve was made for each slice. […] One response was recorded at each stimulation intensity. […] Statistical analyzes were carried out using paired t-test and ANOVA.

[2] = Metabolic stability (microsomes, mice); format: in vitro ADME; details: for microsomal CLint: mouse, liver microsomes
[3] = tested on: prepulse-induced inhibition of the acoustic startle response; assay: Prepulse inhibition of the acoustic startle response; format: in vivo, Wistar rats; details: rats; for Effect on MK-801-induced disruption of prepulse inhibition: 30 min prior to MK-801 (0.3 mg/kg)
Procedure: The procedure was performed according to [Czyrak et al., 2003]. On the day before the experiment, the animals were subjected to a single startle session consisting of two trials, each presented 20 times during the session. During the first trial, a 120 dB, 40 ms pulse was presented, and on the second trial this pulse was preceded by a 75 dB, 20 ms prepulse. On the day of the experiment, the animals were habituated to the background white noise (65 dB) for 5 min (which continued throughout the test), after that the startle session was carried out as described above. Startle response amplitude was defined as the difference between the maximum force detected during a recording window and the force measured immediately before the stimulus onset (the threshold was set at 10 g). For each animal, the amplitudes were averaged separately for each type of trial. The PPI was calculated as the difference between the amplitudes of the pulse (P) and the prepulse + pulse (PP+P), divided by the amplitude of the pulse alone [([P - (PP + P)]/P)×100].

[4] = tested on: amphetamine-induced hyperactivity; design: method as in Kalinichev et al., 2013; details: 100 and 150 mg/kg, subcutaneous; ref Kalinichev et al., 2013; cited from earlier work
[5] = target: Cytochrome P450 3A4 (Homo sapiens, UniProt P08684); assay: Cytochrome P450 inhibition, 3A4; format: in vitro ADME
[6] = Pharmacokinetic study, plasma concentration after i.p. injection; format: in vivo; details: Albino Swiss, ip, mouse, 10 mg/kg i.p.; for Tmax: 10 mg/kg
Procedure: The mice were then perfused with 0.1M PBS to remove remaining blood from the body, and the brains were taken out for the analysis. Blood was centrifuged at 2000 rpm for 10 min at 4°C, and the plasma was collected and frozen at -80°C for further analysis.
Plasma and tissue samples from all drug-treated animals were thawed at room temperature prior to use. Standard protocol of sample preparation: 200 μl acetonitrile was added to the eppendorfs with 50 μl of studied plasma samples or tissue homogenate. Samples were mixed for 5 min on a mixer at 25°C and 1400 rpm. Tubes were then centrifuged at 2000 × g for 15 min at 4°C. About 180 μl of each supernatant was transferred into a plate well. Finally, each sample was injected into the column.
In calibration curve – serial dilution method, plasma was spiked with standard at different concentration levels. Acetonitrile was added. Mixed, centrifuged supernatant was taken.
Plasma and tissue samples from all drug-treated animals at selected time points are analyzed using previously developed a non-validated liquid chromatography-tandem mass spectrometry (LC-MS)/MS method.
LC/MS analysis was carried on a Bruker amaZon SL mass spectrometer using positive/ negative ion ESI mode. Chromatographic separation was achieved on a Ascentis Express C18 column, (5 cm × 2.1 mm, […], Supelco Technologies) at room temperature with a thermostatted column oven. A gradient elution of eluents A [acetonitrile (LiChrosolv, Reag. Ph Eur) +0.1% formic acid (Sigma–Aldrich, 98–100%)] and B (water +0.1% formic acid) was used for separation. The flow rate was set at 1 ml/min. The injection volume was 20 μl, and the time of injection was 4 min.
An Ion trap mass spectrometer (Bruker amaZon SL) was equipped with an electrospray source, operating in the positive/negative ion mode. Data were collected and processes using Bruker Quant Analysis software. Quantification of analytes was performed in SIM mode.

[7] = tested on: MK-801-induced increase in immobility time; assay: Modified forced swim test after chronic MK-801; format: in vivo, Albino Swiss mice; details: chronic (13 days) MK-801 0.4 mg/kg, mice
Procedure: The modified forced swim test was performed according to the method introduced by Noda ([Noda et al., 1995], [1997]; [Wierońska et al., 2015a]; [Woźniak et al., 2016a]). The swim tests were performed in a glass cylinder (height, 20 cm; internal diameter, 15 cm) containing 11 cm of water maintained at 23–24°C. After the acclimation period, the animals underwent the first swim test, where the immobility time was measured during a 3 min period (T1). On the next day, chronic (13 days) MK-801 administration (0.4 mg/kg, i.p.) was started. After a 1-day break, on the 15th day of experiment, the second swim session was performed and the immobility time during 3-min test was measured again (T2). The T2 - T1 difference was reported as the result of the experiment.

Sequence of Cytochrome P450 3A4 (P08684 whole entry): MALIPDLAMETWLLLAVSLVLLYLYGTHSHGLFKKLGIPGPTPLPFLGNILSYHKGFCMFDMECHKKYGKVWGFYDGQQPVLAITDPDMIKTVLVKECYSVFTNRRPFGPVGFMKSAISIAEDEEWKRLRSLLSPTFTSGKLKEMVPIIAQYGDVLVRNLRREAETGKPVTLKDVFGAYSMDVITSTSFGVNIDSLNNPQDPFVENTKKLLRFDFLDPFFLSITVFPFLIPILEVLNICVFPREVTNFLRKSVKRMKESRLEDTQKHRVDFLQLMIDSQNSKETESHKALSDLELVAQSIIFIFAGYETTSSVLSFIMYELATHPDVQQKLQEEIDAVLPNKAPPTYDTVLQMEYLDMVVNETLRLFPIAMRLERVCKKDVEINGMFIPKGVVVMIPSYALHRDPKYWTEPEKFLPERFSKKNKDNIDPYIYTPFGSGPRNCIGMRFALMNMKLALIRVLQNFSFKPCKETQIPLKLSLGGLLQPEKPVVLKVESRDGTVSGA

SMILES | Before-after effect of the drug on FP amplitude [1] | S (factor proportional to the slope of the curve) [1] | Uh (stimulation intensity evoking FP of half-maximum amplitude) [1] | Vmax (maximum FP amplitude, Boltzmann fit) [1] | Metabolic stability (microsomes, mice) [2] | microsomal CLint [2] | Effect on MK-801-induced disruption of prepulse inhibition ([3]; 2.5 mg/kg) | Activity in amphetamine-induced hyperactivity [4] | IC50 [5] | AUC [6] | Cmax [6] | half-life [6] | Tmax [6] | Before-after effect, WILD group higher than KO animals ([1]; WILD vs. KO) | Prepulse-induced inhibition of the acoustic startle response, drug given alone ([3]; 10 mg/kg given alone, effect not statistically significant) | Effect on MK-801-induced disruption of prepulse inhibition ([3]; all doses (5, 10, and 15 mg/kg)) | Effect on MK-801-induced increase in immobility time (modified forced swim test) ([7]; 1 mg/kg i.p. acutely 30 min before T2) | Effect on MK-801-induced increase in immobility time (modified forced swim test) ([7]; 15 mg/kg i.p. acutely 30 min before T2)
CCc1nc2c(o1)CC(c1ccc(C)cc1C)CC2=O (stereo not shown) [ADX71743, 6-(2,4-Dimethylphenyl)-2-ethyl-6,7-dihydro-4(5H)-benzoxazolone] | 116% | 6.53 ± 0.3 | 26.07 ± 1.3 | 2.531 ± 0.1^∗∗∗ | 0.01 | 500 µL/min/mg | inhibited MK-801-induced disruption in PPI | active | > 10 µM | 1.9 µM·h | 3.73 µM | 54 min | 15 min | – | – | – | – | –
COc1ccc(-c2cc3onc(-c4ccncc4)c3c(=O)n2C)cc1 [MMPIP, 6-(4-Methoxyphenyl)-5-methyl-3-(4-pyridinyl)-isoxazolo(4,5-c)pyridin-4(5H)-one] | 123% | 9.37 ± 0.83 | 26.93 ± 1.6 | 2.53 ± 0.3^∗∗∗ | 49.78 | 38.7 µL/min/mg | – | – | – | 13.5 µM·h | 9.85 µM | 69.6 min | 30 min | about 23% | 137 % of control | not antagonized | significant reversal of MK-801-induced effect | significant reversal of MK-801-induced effect
